Structures can show the parent of a compound that is named as a salt. Where two headings read alike, the source gives them in different places.
System: aCD3/aCD28-stimulated human PBMCs
Test: Cytokine production in aCD3/aCD28 stimulated human PBMCs
Type: cell-based
Settings: PBMC, 18 h
Experimental: In order to determine the immune modulatory effect of compounds of compounds of the present invention in human PBMCs, compounds were assessed in the following assay set-up:
Buffy coats were obtained from a local hospital, diluted 3 fold with PBS and layered onto an isotonic Ficoll separating solution d=1.077 g/mL in 50 mL centrifuge tubes. The tubes were centrifuged at 914 g for 25 min at room temperature with the brakes off. The PBMC layer was removed and washed twice with ice-cold PBS. Erythrocytes were lysed by addition of ddH2O and cells were resuspended in X-Vivo15 (Lonza).
1e6 cells/mL were stimulated with soluble anti CD3/CD28 antibodies (1 μg/mL both, clones OKT3 and 28.2) in the presence of described compounds. Cells were incubated for 18 h at 37° C., 5% CO2. Assay plates were centrifuged at 400 g for 5 min and supernatants harvested. Cytokine concentration in tissue culture supernatants were determined with MSD or HTRF kits (MSD and Cisbio), according to manufacturer's instructions.

[1] = enhancement of IFN-γ production, read-out: Activity Class IFN-γ
[2] = enhancement of IL-2 production, read-out: Activity Class IL-2

COCCNC(=O)c1ccc2c(c1)N(Cc1ccc(Cl)cc1)C(=O)[C@@H](N)CS2 [Example 20, (3R)-3-amino-5-[(4-chlorophenyl)methyl]-N-(2-methoxyethyl)-4-oxo-2,3,4,5-tetrahydro-1,5-benzothiazepine-7-carboxamide hydrochloride]
EC50 [1]: 1.58 to 5.01 µM
EC50 [2]: > 5.01 µM

CC(C)NC(=O)c1ccc2c(c1)N(Cc1ccc(Cl)cc1)C(=O)[C@@H](N)CS2 [Example 61, (3R)-3-amino-5-[(4-chlorophenyl)methyl]-4-oxo-N-(propan-2-yl)-2,3,4,5-tetrahydro-1,5-benzothiazepine-7-carboxamide hydrochloride]
EC50 [1]: 1.58 to 5.01 µM
EC50 [2]: > 5.01 µM

CN(C)c1cc2c(cc1C(=O)NCc1ccccc1)N(Cc1ccc(Cl)cc1)C(=O)[C@@H](N)CS2(=O)=O [Example 116, (3R)-3-amino-N-benzyl-5-[(4-chlorophenyl)methyl]-8-(dimethylamino)-1,1,4-trioxo-2,3,4,5-tetrahydro-1λ^6,5-benzothiazepine-7-carboxamide hydrochloride]
EC50 [1]: 1.58 to 5.01 µM
EC50 [2]: > 5.01 µM

COc1ccc(CN2C(=O)[C@@H](N)CS(=O)(=O)c3cc(F)c(C(=O)NC4CC4(F)F)cc32)cc1C(F)(F)F (stereo partly drawn) [Example 117, (3R)-3-amino-N-(2,2-difluorocyclopropyl)-8-fluoro-5-{[4-methoxy-3-(trifluoromethyl)phenyl]methyl}-1,1,4-trioxo-2,3,4,5-tetrahydro-1λ^6,5-benzothiazepine-7-carboxamide hydrochloride]
EC50 [1]: < 1.58 µM
EC50 [2]: > 5.01 µM

C[C@@H]1[C@H](N)C(=O)N(Cc2ccc(Cl)cc2)c2cc(C(=O)NCCCC(F)(F)F)c(F)cc2S1(=O)=O [Example 118, (2R,3R)-3-amino-5-[(4-chlorophenyl)methyl]-8-fluoro-2-methyl-1,1,4-trioxo-N-(4,4,4-trifluorobutyl)-2,3,4,5-tetrahydro-1λ^6,5-benzothiazepine-7-carboxamide hydrochloride]
EC50 [1]: < 1.58 µM
EC50 [2]: 1.58 to 5.01 µM

Cc1nc(-c2ccc(CN3C(=O)[C@@H](N)CS(=O)(=O)c4ccc(C(=O)NCCCC(F)(F)F)cc43)cc2)no1 [Example 119, (3R)-3-amino-5-{[4-(5-methyl-1,2,4-oxadiazol-3-yl)phenyl]methyl}-1,1,4-trioxo-N-(4,4,4-trifluorobutyl)-2,3,4,5-tetrahydro-1λ^6,5-benzothiazepine-7-carboxamide hydrochloride]
EC50 [1]: 1.58 to 5.01 µM
EC50 [2]: > 5.01 µM

COCCNC(=O)c1cc2c(cc1F)S(=O)(=O)C[C@H](N)C(=O)N2Cc1ccc(Cl)cc1 [Example 120, (3R)-3-amino-5-[(4-chlorophenyl)methyl]-8-fluoro-N-(2-methoxyethyl)-1,1,4-trioxo-2,3,4,5-tetrahydro-1λ^6,5-benzothiazepine-7-carboxamide hydrochloride]
EC50 [1]: > 5.01 µM
EC50 [2]: > 5.01 µM

Cc1nc(-c2ccc(CN3C(=O)[C@@H](N)CS(=O)(=O)c4ccc(C(=O)NC5CC5(F)F)cc43)cc2)no1 (stereo partly drawn) [Example 121, (3R)-3-amino-N-(2,2-difluorocyclopropyl)-5-{[4-(5-methyl-1,2,4-oxadiazol-3-yl)phenyl]methyl}-1,1,4-trioxo-2,3,4,5-tetrahydro-1λ^6,5-benzothiazepine-7-carboxamide hydrochloride]
EC50 [1]: > 5.01 µM
EC50 [2]: > 5.01 µM

N[C@H]1CS(=O)(=O)c2cc(F)c(C(=O)NCc3ccc(F)cc3)cc2N(Cc2nnc(C3CC3)s2)C1=O [Example 138, (3R)-3-amino-5-[(5-cyclopropyl-1,3,4-thiadiazol-2-yl)methyl]-8-fluoro-N-[(4-fluorophenyl)methyl]-1,1,4-trioxo-2,3,4,5-tetrahydro-1λ^6,5-benzothiazepine-7-carboxamide hydrochloride]
EC50 [1]: 1.58 to 5.01 µM
EC50 [2]: > 5.01 µM

N[C@H]1CS(=O)(=O)c2cc(F)c(C(=O)NC3CCOCC3)cc2N(Cc2ccc(Cl)cc2)C1=O [Example 144, (3R)-3-amino-5-[(4-chlorophenyl)methyl]-8-fluoro-N-(oxan-4-yl)-1,1,4-trioxo-2,3,4,5-tetrahydro-1λ^6,5-benzothiazepine-7-carboxamide]
EC50 [1]: 1.58 to 5.01 µM
EC50 [2]: > 5.01 µM

N[C@H]1CS(=O)(=O)c2ccc(C(=O)N[C@@H]3C[C@@H]3F)cc2N(Cc2ccc(Cl)cc2)C1=O [Example 147, (3R)-3-amino-5-[(4-chlorophenyl)methyl]-N-[(1R,2S)-2-fluorocyclopropyl]-1,1,4-trioxo-2,3,4,5-tetrahydro-1λ^6,5-benzothiazepine-7-carboxamide]
EC50 [1]: > 5.01 µM
EC50 [2]: > 5.01 µM

N[C@H]1CS(=O)(=O)c2ccc(C(=O)NC3CC(F)(F)C3)cc2N(Cc2ccccc2F)C1=O [Example 148, (3R)-3-amino-N-(3,3-difluorocyclobutyl)-5-[(2-fluorophenyl)methyl]-1,1,4-trioxo-2,3,4,5-tetrahydro-1λ^6,5-benzothiazepine-7-carboxamide]
EC50 [1]: 1.58 to 5.01 µM
EC50 [2]: > 5.01 µM

COc1cccc(CN2C(=O)[C@@H](N)CS(=O)(=O)c3ccc(C(=O)NC4CC(F)(F)C4)cc32)c1 [Example 149, (3R)-3-amino-N-(3,3-difluorocyclobutyl)-5-[(3-methoxyphenyl)methyl]-1,1,4-trioxo-2,3,4,5-tetrahydro-1λ^6,5-benzothiazepine-7-carboxamide]
EC50 [1]: > 5.01 µM
EC50 [2]: > 5.01 µM

N[C@H]1CS(=O)(=O)c2ccc(C(=O)N[C@@H]3CCOC3)cc2N(Cc2ccc(Cl)cc2)C1=O [Example 156, (3R)-3-amino-5-[(4-chlorophenyl)methyl]-1,1,4-trioxo-N-[(3R)-oxolan-3-yl]-2,3,4,5-tetrahydro-1λ^6,5-benzothiazepine-7-carboxamide]
EC50 [1]: > 5.01 µM
EC50 [2]: > 5.01 µM

N[C@H]1CS(=O)(=O)c2ccc(C(=O)NCC3CCOC3)cc2N(Cc2ccc(Cl)cc2)C1=O (stereo partly drawn) [Example 157, (3R)-3-amino-5-[(4-chlorophenyl)methyl]-1,1,4-trioxo-N-[(oxolan-3-yl)methyl]-2,3,4,5-tetrahydro-1λ^6,5-benzothiazepine-7-carboxamide]
EC50 [1]: > 5.01 µM
EC50 [2]: > 5.01 µM

COc1ccc(CN2C(=O)[C@@H](N)CS(=O)(=O)c3ccc(C(=O)N[C@@H]4CC4(F)F)cc32)cc1 [Example 161, (3R)-3-amino-N-[(1R)-2,2-difluorocyclopropyl]-5-[(4-methoxyphenyl)methyl]-1,1,4-trioxo-2,3,4,5-tetrahydro-1λ^6,5-benzothiazepine-7-carboxamide]
EC50 [1]: > 5.01 µM
EC50 [2]: > 5.01 µM

N[C@H]1CS(=O)(=O)c2ccc(C(=O)NCCCC(F)(F)F)cc2N(Cc2ccccc2)C1=O [Example 162, (3R)-3-amino-5-benzyl-1,1,4-trioxo-N-(4,4,4-trifluorobutyl)-2,3,4,5-tetrahydro-1λ^6,5-benzothiazepine-7-carboxamide]
EC50 [1]: > 5.01 µM
EC50 [2]: > 5.01 µM

N[C@H]1CS(=O)(=O)c2ccc(C(=O)NCC3CCOCC3)cc2N(Cc2ccc(OC(F)F)cc2)C1=O [Example 164, (3R)-3-amino-5-{[4-(difluoromethoxy)phenyl]methyl}-N-[(oxan-4-yl)methyl]-1,1,4-trioxo-2,3,4,5-tetrahydro-1λ^6,5-benzothiazepine-7-carboxamide]
EC50 [1]: > 5.01 µM
EC50 [2]: > 5.01 µM
